How the values were obtained:
Assay type in all cases: binding
KRasWT1-169 = KRasWT1-169 (Homo sapiens, UniProt P01116); test: HPLC-based approach for determination of affinities relative to GDP; conditions: for KA: KA = KA(GDP) x KrelA, GDP from KA = 1/KD; for relative association constant KrelA: relative to GDP
Method: The relative affinities of the nucleotide analogues were measured using an HPLC-based approach. 50 μM of […] was mixed with 50 μM of the acetamide derivatives and incubated either for 7 days at room temperature in the absence of EDTA, for 24 hr at 4 °C in the presence of 10 mM EDTA, or for 1 hr at room temperature in the presence of SOS in a buffer consisting of 20 mM HEPES (pH 7.5), 100 mM NaCl, 2 mM MgCl2, 1 mM TCEP and 5% glycerol. After incubation, the Ras proteins were washed five times with buffer (15 mL) using centrifugal filter devices to remove any unbound nucleotide, concentrated and analysed by isocratic HPLC runs. The resulting curves were analysed by integrating the corresponding peaks for GDP and the guanosine nucleotide analogues after distinct time points using the Agilent ChemStation Software (Table 1-source data 3, Table 1-source data 4). Based on the percentage distribution determined by the HPLC assay, the relative association constants (KrelA) for […] and bdaGDP could subsequently be calculated. In contrast, the superposition of the GDP signal prevented an exact determination of the relative association constant for […] values of 0.34 and 0.28 relative to GDP were determined for […] and bdaGDP, respectively. […] By rearranging the equilibrium reactions listed in (Equation 1a) and (Equation 1b), the following relationships are obtained for KGDP (Equation 2a) and […] Assuming that the concentration for aGDP used in the HPLC assay is 50 μM, the following GDP concentrations for […] (Equation 3a) and bdaGDP (Equation 3b) can be determined at time t=0 hr using the percentages determined in Table 1-source data 3:(3a) GDPtotal=%GDP/%[…]=37%/63%×50μM=29.4μM (3b) GDPtotal=%GDP/%bdaGDP=43%/57%×50μM=37.7μM The concentrations of the components listed in equation (Equation 2b) can be calculated as follows for […] (Equation 4a, Equation 4b, Equation 4c, Equation 4d) and bdaGDP (Equation 5a, Equation 5b, Equation 5c, Equation 5d) by considering the total GDP concentrations calculated previously:(4[…]]=47/100×29.4μM=13.8μM (4b) [Ras:GDP]=53/100×29.4μM=15.6μ[…]]=50μM-13.8μM=36.2μM (4d) [GDP]=29.4μM-15.6μM=13.8μM (5a) [Ras:bdaGDP]=39.5/100×37.7μM=14.9μM (5b) [Ras:GDP]=60.5/100×37.7μM=22.8μM (5c) [bdaGDP]=50μM-14.9μM=35.1μM (5d) [GDP]=37.7μM-22.8μM=14.9μM The relative association constant KrelA can be calculated by the following formula (Equation 6):(6) […] By inserting the concentrations of each component determined from (Equation 4a, Equation 4b, Equation 4c, Equation 4d) and (Equation 5a, Equation 5b, Equation 5c, Equation 5d) into (Equation 6), the relative association constants KrelA for […] (Equation 10a) and […]=1/0.136pM^-1=7.4pM (10b) KDbdaGDP=1/0.112pM^-1=8.9pM

nucleotide-free KRas = test: Stopped-flow competition with mantdGDP (association kinetics); conditions: for kon: 25 °C, 1 µM KRas, 2 µM mantdGDP, 1, 2, 6 µM competing nucleotide, global fit; for koff: calculated kinetic parameter
Method: The association kinetics of the nucleotide analogues were analyzed with a SX-20 stopped-flow instrument (Applied Photophysics) at 25 °C in a buffer consisting of 25 mM HEPES (pH 7.5), 100 mM NaCl, 1 mM MgCl2, and 0.5 mM TCEP. 1 µM of nucleotide-free KRas ([Müller et al., 2017]) in one syringe was mixed rapidly with 2 µM mantdGDP in the other. In subsequent experiments, the second syringe contained competing nucleotides (1, 2, and 6 µM) in addition to 2 µM mantdGDP. The resulting progress curves were globally fit using KinTek Explorer to obtain the corresponding association rate constants as previously described (Table 1—source data 1, Table 1—source data 2 [Johnson et al., 2009]).

[1] = system: T1, KRasG13C1-169 (Cys-light); test: Covalent modification of protein controlled by ESI-MS
T1 construct: KRasWT1-169 and KRasG13C1-169 Cys-light (C51S C80L C118S) were expressed in BL21 (DE3) E. coli; hexahistidine (TEV site) (N, cleaved yes); made in house; host or cells: E. coli BL21 (DE3)
Method: After incubation at room temperature for the appropriate time, the modification of the protein was controlled by ESI-MS. For covalent modification of full-length KRasG13C, a nucleotide exchange with a 10-fold excess of the acryl-bearing nucleotides at pH 7.5 was first performed following incubation at room temperature for 24 h at pH 9.5 for covalent protein modification. Covalent protein modification was controlled by ESI-MS. The MS spectra were recorded on a VelosPro IonTrap (Thermo Scientific) with an EC 50/3 Nucleodur C18 1.8 μm column (Macherey and Nagel) and a gradient of the mobile phase A (0.1% formic acid in water) to B (0.1% formic acid in acetonitrile).

[2] = -EDTA, 7 days at room temperature
[3] = worked calculation KD = 1/KA, Equation 10a/10b

Chain of KRasWT1-169 (P01116 1-169): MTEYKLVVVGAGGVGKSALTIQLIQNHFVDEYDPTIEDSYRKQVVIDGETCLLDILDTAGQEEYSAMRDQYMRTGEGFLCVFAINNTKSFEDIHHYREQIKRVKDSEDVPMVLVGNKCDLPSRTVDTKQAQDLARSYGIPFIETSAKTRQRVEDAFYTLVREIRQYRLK

Kd (KRasWT1-169; +SOS, 1 hr at room temperature) [pM] | Kd (KRasWT1-169; [2]) [pM] | KA (KRasWT1-169) [pM⁻¹] | relative association constant KrelA (KRasWT1-169) | Kd (KRasWT1-169; [3]) [pM] | Structure (SMILES) | kon (nucleotide-free KRas) [µM^–1s^–1] | koff (nucleotide-free KRas) | covalent labelling of KRasG13C1-169 (Cys-light) ([1]; pH 7.5, after 24 hr) | covalent labelling of KRasG13C1-169 (Cys-light) ([1]; pH 9.5, after 24 hr) [%]
10.4 | 8 | 0.136 | 0.34 | 7.4 | C=CC(=O)NCCCNC(=O)O[C@H]1[C@@H](O)[C@H](n2cnc3c(=O)[nH]c(N)nc32)O[C@@H]1COP(=O)(O)OP(=O)(O)O [pdaGDP] | 3.34 | 2.9x10^–5 s^–1 | – | –
– | – | – | – | – | C=CC(=O)NCCCCNC(=O)O[C@H]1[C@@H](O)[C@H](n2cnc3c(=O)[nH]c(N)nc32)O[C@@H]1COP(=O)(O)OP(=O)(O)O [acryl-bdaGDP] | – | – | slight labelling | ~100
– | – | – | – | – | C=CC(=O)NCCCNC(=O)O[C@H]1[C@@H](O)[C@H](n2cnc3c(=O)[nH]c(N)nc32)O[C@@H]1COP(=O)(O)OP(=O)(O)O [acryl-pdaGDP] | – | – | slight labelling | ~100
10 | 10 | 0.112 | 0.28 | 8.9 | C=CC(=O)NCCCCNC(=O)O[C@H]1[C@@H](O)[C@H](n2cnc3c(=O)[nH]c(N)nc32)O[C@@H]1COP(=O)(O)OP(=O)(O)O [bdaGDP] | 3.12 | 3.0x10^–5 s^–1 | – | –
– | – | – | – | – | Nc1nc2c(ncn2[C@@H]2O[C@H](COP(=O)(O)OP(=O)(O)OP(=O)(O)O)[C@@H](O)[C@H]2O)c(=O)[nH]1 [GTP, reference compound] | 5.23 | – | – | –

Reference: article PMC10042540, “Targeting oncogenic KRasG13C with nucleotide-based covalent inhibitors” (eLife, 2023)
